{"source": "PubChem BioAssay (NCI)", "assay_in_all_cases": "growth of human tumour cells (NCI), 384-well format", "key": {"786-0 renal": {"tested_on": "786-0 renal"}, "A498 renal": {"tested_on": "A498 renal"}, "A549 NSCLC": {"tested_on": "A549 NSCLC"}, "ACHN renal": {"tested_on": "ACHN renal"}, "BT-549 breast": {"tested_on": "BT-549 breast"}, "CAKI-1 renal": {"tested_on": "CAKI-1 renal"}, "CCRF-CEM leukemia": {"tested_on": "CCRF-CEM leukemia"}, "COLO 205 colon": {"tested_on": "COLO 205 colon"}, "DU-145 prostate": {"tested_on": "DU-145 prostate"}, "HCC-2998 colon": {"tested_on": "HCC-2998 colon"}, "HCT-116 colon": {"tested_on": "HCT-116 colon"}, "HCT-15 colon": {"tested_on": "HCT-15 colon"}, "HL-60(TB) leukemia": {"tested_on": "HL-60(TB) leukemia"}, "HOP-62 NSCLC": {"tested_on": "HOP-62 NSCLC"}, "HOP-92 NSCLC": {"tested_on": "HOP-92 NSCLC"}, "HT29 colon": {"tested_on": "HT29 colon"}, "IGROV1 ovarian": {"tested_on": "IGROV1 ovarian"}, "K-562 leukemia": {"tested_on": "K-562 leukemia"}, "KM12 colon": {"tested_on": "KM12 colon"}, "LOX IMVI melanoma": {"tested_on": "LOX IMVI melanoma"}, "M14 melanoma": {"tested_on": "M14 melanoma"}, "MALME-3M melanoma": {"tested_on": "MALME-3M melanoma"}, "MCF7 breast": {"tested_on": "MCF7 breast"}, "MDA-MB-231 breast": {"tested_on": "MDA-MB-231 breast"}, "MDA-MB-435 melanoma": {"tested_on": "MDA-MB-435 melanoma"}, "MDA-MB-468 breast": {"tested_on": "MDA-MB-468 breast"}, "MOLT-4 leukemia": {"tested_on": "MOLT-4 leukemia"}, "NCI-H226 lung": {"tested_on": "NCI-H226 lung"}, "NCI-H23 lung": {"tested_on": "NCI-H23 lung"}}, "note": "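GI50: concentration for 50% inhibition of growth. TGI marks complete inhibition of growth.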"}
{"smiles": "COc1ccc(CC(NC(=O)[C@H](C)NC(=O)CN2CCOCC2)C(=O)N[C@@H](Cc2ccccc2)C(=O)[C@@]2(C)CO2)cc1", "note": "(some centres not stated)", "values": [{"measurement": "GI50", "setting": "786-0 renal", "result": 297, "unit": "nM"}, {"measurement": "TGI", "setting": "786-0 renal", "result": 1030, "unit": "nM"}, {"measurement": "GI50", "setting": "A498 renal", "result": 226, "unit": "nM"}, {"measurement": "TGI", "setting": "A498 renal", "result": 545, "unit": "nM"}, {"measurement": "GI50", "setting": "A549 NSCLC", "result": 319, "unit": "nM"}, {"measurement": "TGI", "setting": "A549 NSCLC", "result": 1080, "unit": "nM"}, {"measurement": "GI50", "setting": "ACHN renal", "result": 509, "unit": "nM"}, {"measurement": "TGI", "setting": "ACHN renal", "result": 1690, "unit": "nM"}, {"measurement": "GI50", "setting": "BT-549 breast", "result": 175, "unit": "nM"}, {"measurement": "TGI", "setting": "BT-549 breast", "result": 316, "unit": "nM"}, {"measurement": "GI50", "setting": "CAKI-1 renal", "result": 271, "unit": "nM"}, {"measurement": "TGI", "setting": "CAKI-1 renal", "result": 765, "unit": "nM"}, {"measurement": "GI50", "setting": "CCRF-CEM leukemia", "result": 37.4, "unit": "nM"}, {"measurement": "TGI", "setting": "CCRF-CEM leukemia", "result": 137, "unit": "nM"}, {"measurement": "GI50", "setting": "COLO 205 colon", "result": 304, "unit": "nM"}, {"measurement": "TGI", "setting": "COLO 205 colon", "result": 1010, "unit": "nM"}, {"measurement": "GI50", "setting": "DU-145 prostate", "result": 302, "unit": "nM"}, {"measurement": "TGI", "setting": "DU-145 prostate", "result": 861, "unit": "nM"}, {"measurement": "GI50", "setting": "HCC-2998 colon", "result": 173, "unit": "nM"}, {"measurement": "TGI", "setting": "HCC-2998 colon", "result": 312, "unit": "nM"}, {"measurement": "GI50", "setting": "HCT-116 colon", "result": 167, "unit": "nM"}, {"measurement": "TGI", "setting": "HCT-116 colon", "result": 309, "unit": "nM"}, {"measurement": "GI50", "setting": "HCT-15 colon", "result": 1810, "unit": "nM"}, {"measurement": "TGI", "setting": "HCT-15 colon", "result": 3390, "unit": "nM"}, {"measurement": "GI50", "setting": "HL-60(TB) leukemia", "result": 147, "unit": "nM"}, {"measurement": "TGI", "setting": "HL-60(TB) leukemia", "result": 280, "unit": "nM"}, {"measurement": "GI50", "setting": "HOP-62 NSCLC", "result": 184, "unit": "nM"}, {"measurement": "TGI", "setting": "HOP-62 NSCLC", "result": 331, "unit": "nM"}, {"measurement": "GI50", "setting": "HOP-92 NSCLC", "result": 149, "unit": "nM"}, {"measurement": "TGI", "setting": "HOP-92 NSCLC", "result": 294, "unit": "nM"}, {"measurement": "GI50", "setting": "HT29 colon", "result": 181, "unit": "nM"}, {"measurement": "TGI", "setting": "HT29 colon", "result": 330, "unit": "nM"}, {"measurement": "GI50", "setting": "IGROV1 ovarian", "result": 255, "unit": "nM"}, {"measurement": "TGI", "setting": "IGROV1 ovarian", "result": 647, "unit": "nM"}, {"measurement": "GI50", "setting": "K-562 leukemia", "result": 224, "unit": "nM"}, {"measurement": "TGI", "setting": "K-562 leukemia", "result": 468, "unit": "nM"}, {"measurement": "GI50", "setting": "KM12 colon", "result": 165, "unit": "nM"}, {"measurement": "TGI", "setting": "KM12 colon", "result": 308, "unit": "nM"}, {"measurement": "GI50", "setting": "LOX IMVI melanoma", "result": 209, "unit": "nM"}, {"measurement": "TGI", "setting": "LOX IMVI melanoma", "result": 355, "unit": "nM"}, {"measurement": "GI50", "setting": "M14 melanoma", "result": 142, "unit": "nM"}, {"measurement": "TGI", "setting": "M14 melanoma", "result": 278, "unit": "nM"}, {"measurement": "GI50", "setting": "MALME-3M melanoma", "result": 136, "unit": "nM"}, {"measurement": "TGI", "setting": "MALME-3M melanoma", "result": 281, "unit": "nM"}, {"measurement": "GI50", "setting": "MCF7 breast", "result": 138, "unit": "nM"}, {"measurement": "TGI", "setting": "MCF7 breast", "result": 382, "unit": "nM"}, {"measurement": "GI50", "setting": "MDA-MB-231 breast", "result": 166, "unit": "nM"}, {"measurement": "TGI", "setting": "MDA-MB-231 breast", "result": 309, "unit": "nM"}, {"measurement": "GI50", "setting": "MDA-MB-435 melanoma", "result": 141, "unit": "nM"}, {"measurement": "TGI", "setting": "MDA-MB-435 melanoma", "result": 281, "unit": "nM"}, {"measurement": "GI50", "setting": "MDA-MB-468 breast", "result": 180, "unit": "nM"}, {"measurement": "TGI", "setting": "MDA-MB-468 breast", "result": 324, "unit": "nM"}, {"measurement": "GI50", "setting": "MOLT-4 leukemia", "result": 15.5, "unit": "nM"}, {"measurement": "TGI", "setting": "MOLT-4 leukemia", "result": 28.9, "unit": "nM"}, {"measurement": "GI50", "setting": "NCI-H226 lung", "result": 60.5, "unit": "nM"}, {"measurement": "TGI", "setting": "NCI-H226 lung", "result": 186, "unit": "nM"}, {"measurement": "GI50", "setting": "NCI-H23 lung", "result": 210, "unit": "nM"}]}
